In ChEMBL document CHEMBL1201862, “PubChem BioAssay data set” (2004):
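Step 1: Grow cells in 96-well plates. Step 2: Expose to compound for 48 hours at 5 concentrations. Step 3: Interpolate endpoints linearly; if unreached, use highest concentration. Abbreviation: GI50, concentration required for 50% inhibition of growth.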 The source made the active and inactive calls. No stated cut-off is given here; in the data, active = GI50 up to about 1.1 µM and inactive = higher.

How the values were obtained:
Assay in all cases: DTP human tumour cell line panel, 48 h
786-0 = system: 786-0
SK-OV-3 = system: SK-OV-3
HCT-116 = system: HCT-116
OVCAR-4 = system: OVCAR-4
MDA-N = system: MDA-N
TK-10 = system: TK-10
HCC 2998 = system: HCC 2998
RPMI-8226 = system: RPMI-8226
A498 = system: A498
KM12 = system: KM12
HOP-62 = system: HOP-62
HL-60 = system: HL-60
EKVX = system: EKVX
HCT-15 = system: HCT-15
SN12C = system: SN12C
SF-295 = system: SF-295
T47D = system: T47D
SK-MEL-5 = system: SK-MEL-5
K562 = system: K562
U-251 = system: U-251
RXF 393 = system: RXF 393
MCF7 = system: MCF7
ACHN = system: ACHN
OVCAR-3 = system: OVCAR-3
SNB-75 = system: SNB-75
CCRF-CEM = system: CCRF-CEM
UO-31 = system: UO-31
OVCAR-8 = system: OVCAR-8
COLO 205 = system: COLO 205
UACC-62 = system: UACC-62
MDA-MB-435 = system: MDA-MB-435
IGROV-1 = system: IGROV-1
SNB-19 = system: SNB-19
MOLT-4 = system: MOLT-4
NCI-H226 = system: NCI-H226
SW-620 = system: SW-620
CAKI-1 = system: CAKI-1
SF-268 = system: SF-268
NCI-H522 = system: NCI-H522
Malme-3M = system: Malme-3M
PC-3 = system: PC-3
HT-29 = system: HT-29
A549 = system: A549
NCI/ADR-RES = system: NCI/ADR-RES
M14 = system: M14
SK-MEL-2 = system: SK-MEL-2
MDA-MB-231 = system: MDA-MB-231
SK-MEL-28 = system: SK-MEL-28
DU-145 = system: DU-145
NCI-H23 = system: NCI-H23
OVCAR-5 = system: OVCAR-5
BT-549 = system: BT-549
UACC-257 = system: UACC-257
Hs-578T = system: Hs-578T

Question: Which results are given for `Clc1nc2n(c1/C=C/c1cccs1)CCS2`?
Answer: GI50 (786-0): 20 µM (inactive); GI50 (SK-OV-3): 30.7 µM (inactive); GI50 (HCT-116): 25.4 µM (inactive); GI50 (OVCAR-4): 64 µM (inactive); GI50 (MDA-N): 36.5 µM (inactive); GI50 (TK-10): 36 µM (inactive); GI50 (HCC 2998): 35.5 µM (inactive); GI50 (RPMI-8226): 15.7 µM (inactive); GI50 (A498): 20 µM (inactive); GI50 (KM12): 37.7 µM (inactive); GI50 (HOP-62): 53.7 µM (inactive); GI50 (HL-60): 6 µM (inactive); GI50 (EKVX): 5.43 µM (inactive); GI50 (HCT-15): 37 µM; GI50 (SN12C): 31.4 µM (inactive); GI50 (SF-295): 29.6 µM (inactive); GI50 (T47D): 17 µM (inactive); GI50 (SK-MEL-5): 17.1 µM (inactive); GI50 (K562): 47.2 µM (inactive); GI50 (U-251): 28.1 µM (inactive); GI50 (RXF 393): 40.8 µM (inactive); GI50 (MCF7): 30.8 µM (inactive); GI50 (ACHN): 37.5 µM (inactive); GI50 (OVCAR-3): 23.5 µM (inactive); GI50 (SNB-75): 55 µM (inactive); GI50 (CCRF-CEM): 10.9 µM (inactive); GI50 (UO-31): 31 µM (inactive); GI50 (OVCAR-8): 29.7 µM (inactive); GI50 (COLO 205): 37.8 µM (inactive); GI50 (UACC-62): 37.3 µM (inactive); GI50 (MDA-MB-435): 31.1 µM (inactive); GI50 (IGROV-1): 32 µM (inactive); GI50 (SNB-19): 43.6 µM (inactive); GI50 (MOLT-4): 11.3 µM (inactive); GI50 (NCI-H226): 31.6 µM (inactive); GI50 (SW-620): 26.9 µM (inactive); GI50 (CAKI-1): 18.8 µM (inactive); GI50 (SF-268): 40.4 µM (inactive); GI50 (NCI-H522): 35.1 µM (inactive); GI50 (Malme-3M): 90.8 µM (inactive); GI50 (PC-3): 40.8 µM (inactive); GI50 (HT-29): 24.3 µM (inactive); GI50 (A549): 34.5 µM (inactive); GI50 (NCI/ADR-RES): 29.6 µM (inactive); GI50 (M14): 38.7 µM (inactive); GI50 (SK-MEL-2): > 100 µM (inactive); GI50 (MDA-MB-231): 6.41 µM (inactive); GI50 (SK-MEL-28): 34.8 µM (inactive); GI50 (DU-145): 28.6 µM (inactive); GI50 (NCI-H23): 29 µM (inactive); GI50 (OVCAR-5): 27.3 µM (inactive); GI50 (BT-549): 26.6 µM (inactive); GI50 (UACC-257): 57.5 µM (inactive); GI50 (Hs-578T): 30.1 µM (inactive)
